These are literature values, as cited in patent US20100048397A1, “GABA/Pesticidal Combinations” (priority 2008, published 2010).

The structures appear in SMILES notation.

In data set [1] the test system is greenhouse-grown tomato plants. To be noted: in vivo.
Data set [2] concerns greenhouse-grown cucumber plants. To be noted: in vivo.
A further data set concerns leek seed. To be noted: seed treatment, compared with seed treated with fipronil.

Regarding `O=[N+]([O-])NC1=NCCN1Cc1ccc(Cl)nc1` [imidacloprid, (E)-1-(6-chloro-3-pyridylmethyl)-N-nitroimidazolidin-2-ylideneamine], the “phytotoxicity at lowest rate” value in data set [1] and in data set [2] was “caused phytotoxicity symptoms” in each case. In addition, in the data set with leek seed, the “phytotoxicity, germination rate” value is on record as “delayed germination rates”.
